pEC50: −log10 of the molar value.

What is called pEC50 is the EC50 on a negative log10 scale, so that one unit is a factor of ten.

The target in assay [1] is T1, Prostaglandin E2 receptor EP2 subtype (Homo sapiens, UniProt P43116). The assay is described as follows: (§1) cAMP Assay: EP4 receptors couple to Gs and mediate elevations in cAMP concentration, although they do participate in other pathways as well. There are some redundancies in function between EP2 and EP4 receptors. For example, both receptors induce PGE2-mediated RANKL through cAMP. The format is functional.
T1 sequence (P43116 whole entry): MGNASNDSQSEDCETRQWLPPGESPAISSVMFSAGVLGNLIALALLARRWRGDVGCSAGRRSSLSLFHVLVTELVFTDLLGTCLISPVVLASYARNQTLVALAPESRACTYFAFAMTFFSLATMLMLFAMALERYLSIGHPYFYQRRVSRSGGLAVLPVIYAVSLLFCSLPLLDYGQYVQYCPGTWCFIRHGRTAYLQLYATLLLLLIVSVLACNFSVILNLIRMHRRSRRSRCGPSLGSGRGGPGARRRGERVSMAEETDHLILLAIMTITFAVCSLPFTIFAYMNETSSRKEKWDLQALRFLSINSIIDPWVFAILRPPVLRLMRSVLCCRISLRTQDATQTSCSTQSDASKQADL

Assay [2] addresses T2, Prostaglandin E2 receptor EP4 subtype (Homo sapiens, UniProt P35408). The assay is described as §1. It is filed as functional.
Assay [3] deals with T1, Prostaglandin E2 receptor EP2 subtype. The assay is described as follows: (§2) Radioligand Binding: HEK-293 cells stably expressing the human or feline FP receptor, or EP1, EP2, or EP4 receptors were washed with TME buffer, scraped from the bottom of the flasks, and homogenized for 30 sec using a Brinkman PT 10/35 polytron. TME buffer was added to achieve a final 40 ml volume in the centrifuge tubes (the composition of TME is 100 mM TRIS base, 20 mM MgCl2, […]; 10N HCl is added to achieve a pH of 7.4). The cell homogenate was centrifuged at 19000 r.p.m. for 20 min at 4 °C. using a Beckman Ti-60 rotor. The resultant pellet was resuspended in TME buffer to give a final 1 mg/ml protein concentration, as determined by Biorad assay. Radioligand binding competition assays vs. [3H-]17-phenyl PGF2a (5 nM) were performed in a 100 μl volume for 60 min. Binding reactions were started by adding plasma membrane fraction. The reaction was terminated by the addition of 4 ml ice-cold TRIS-HCl buffer and rapid filtration through glass fiber GF/B filters using a Brandel cell harvester. The filters were washed 3 times with ice-cold buffer and oven dried for one hour. [3H−] PGE2 (specific activity 180 Ci mmol) was used as the radioligand for EP receptors. [3H] 17-phenyl PGF2a was employed for FP receptor binding studies. Binding studies employing EP1, EP2, EP4 and FP receptors were performed in duplicate in at least three separate experiments. A 200 μl assay volume was used. […]. The format is cell-free.

The target in assay [4] is T2, Prostaglandin E2 receptor EP4 subtype. The description is as §2. The format is cell-free.

T2 sequence (P35408 whole entry): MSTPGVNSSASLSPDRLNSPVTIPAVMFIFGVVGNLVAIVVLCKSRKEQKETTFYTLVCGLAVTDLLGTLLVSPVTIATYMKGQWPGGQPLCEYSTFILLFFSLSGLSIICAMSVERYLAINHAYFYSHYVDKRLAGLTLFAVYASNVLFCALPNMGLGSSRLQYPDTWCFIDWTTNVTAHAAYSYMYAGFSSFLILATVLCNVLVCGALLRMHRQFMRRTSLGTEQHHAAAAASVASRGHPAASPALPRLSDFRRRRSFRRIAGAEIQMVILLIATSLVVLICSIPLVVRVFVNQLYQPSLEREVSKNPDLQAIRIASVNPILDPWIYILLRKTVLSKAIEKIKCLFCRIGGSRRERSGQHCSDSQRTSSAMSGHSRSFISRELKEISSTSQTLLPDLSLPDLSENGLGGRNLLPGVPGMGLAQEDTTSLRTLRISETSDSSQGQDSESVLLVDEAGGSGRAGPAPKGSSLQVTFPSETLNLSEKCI

As to `O=C(O)c1ccc(CCCN2[C@@H](/C=C/C(O)Cc3cccc(OC(F)(F)F)c3)CCS2(=O)=O)s1` (some centres undefined), the pEC50 in assay [1] is 7.42; in assay [2], 9.00; in assay [3] it was 7.02; in assay [4] it was 7.28.

Source of the values: ChEMBL document CHEMBL3886696, “Compounds and methods for treating ocular diseases” (2016).
